Reference: patent publication US10035794B2, “Heterocyclic derivatives and their use in the treatment of neurological disorders” (NOVARTIS AG, priority 2011, dated 2018)

Assays:
Human BACE-1 = Human BACE-1 (Homo sapiens (Human), UniProt P56817); test: Test 1: Inhibition of Human BACE-1; settings: read-out: BACE-1 IC50; mean IC50, recombinant BACE-1, pH 4.5
[1] = Test 4: Inhibition of Cellular Release of Amyloid Peptide 1-40; type: cell-based, Chinese hamster; settings: Cricetulus griseus, CHO, 24 h; read-out: Amyloid-β1-40 release IC50
Protocol: Chinese hamster ovary cells are transfected with the human gene for amyloid precursor protein. The cells are plated at a density of 8000 cells/well into 96-well microtiter plates and cultivated for 24 hours in DMEM cell culture medium containing 10% FCS. The test compound is added to the cells at various concentrations, and the cells are cultivated for 24 hours in the presence of the test compound.

Human BACE-2 = Human BACE-2 (Homo sapiens (Human), UniProt Q9Y5Z0); test: Test 2: Inhibition of Human BACE-2; type: biochemical; settings: mean IC50, recombinant BACE-2, pH 4.5
Description: Test 2: Inhibition of Human BACE-2

Sequence of Human BACE-1 (P56817 46-457): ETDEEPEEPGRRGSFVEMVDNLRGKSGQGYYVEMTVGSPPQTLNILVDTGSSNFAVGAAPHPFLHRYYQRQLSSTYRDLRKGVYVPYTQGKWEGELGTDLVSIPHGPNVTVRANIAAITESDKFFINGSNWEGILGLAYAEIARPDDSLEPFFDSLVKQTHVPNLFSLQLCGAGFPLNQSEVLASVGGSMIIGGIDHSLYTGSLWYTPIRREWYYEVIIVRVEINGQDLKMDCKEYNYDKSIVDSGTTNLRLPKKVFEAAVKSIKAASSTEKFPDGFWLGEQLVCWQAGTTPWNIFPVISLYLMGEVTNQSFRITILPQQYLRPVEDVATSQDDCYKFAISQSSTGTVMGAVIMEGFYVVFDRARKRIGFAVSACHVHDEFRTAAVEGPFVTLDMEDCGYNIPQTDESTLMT
Sequence of Human BACE-2 (Q9Y5Z0 63-473): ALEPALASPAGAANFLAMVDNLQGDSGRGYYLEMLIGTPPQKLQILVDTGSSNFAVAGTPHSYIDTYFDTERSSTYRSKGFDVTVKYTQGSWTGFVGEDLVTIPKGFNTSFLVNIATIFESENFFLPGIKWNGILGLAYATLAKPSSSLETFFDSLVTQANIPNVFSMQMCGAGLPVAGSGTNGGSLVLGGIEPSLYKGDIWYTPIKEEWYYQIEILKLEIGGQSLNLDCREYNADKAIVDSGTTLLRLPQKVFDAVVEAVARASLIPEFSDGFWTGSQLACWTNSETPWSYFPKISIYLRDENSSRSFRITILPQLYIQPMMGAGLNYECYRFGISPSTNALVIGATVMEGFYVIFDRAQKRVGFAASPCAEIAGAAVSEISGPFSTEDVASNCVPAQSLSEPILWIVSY

IC50 (Human BACE-1)	IC50 [1]	IC50 (Human BACE-2)	SMILES
2600 nM	140 nM		NC1=NC(CF)(c2cccc(NC(=O)c3ccc(Cl)cn3)n2)COC1 (centres unmarked) [Example 3, 5-{6-[(5-Chloro-pyridine-2-carbonyl)-amino]-pyridin-2-yl}-5-fluoromethyl-5,6-dihydro-2H-[1,4]oxazin-3-yl-ammonium trifluoro acetate]
1600 nM	98 nM	1700 nM	NC1=NC(CF)(c2cccc(NC(=O)c3ccc(Br)cn3)n2)COC1 (centres unmarked) [Example 4, 5-Bromo-pyridine-2-carboxylic acid [6-(5-amino-3-fluoromethyl-3,6-dihydro-2H-[1,4]oxazin-3-yl)-pyridin-2-yl]-amide]
270 nM	40 nM	1000 nM	Cc1cc(C#N)cnc1C(=O)Nc1cccc(C2(CF)COCC(N)=N2)n1 (centres unmarked) [Example 5, 5-{6-[(5-Cyano-3-methyl-pyridine-2-carbonyl)-amino]-pyridin-2-yl}-5-fluoromethyl-5,6-dihydro-2H-[1,4]oxazin-3-yl-ammonium trifluoro acetate]
	410 nM		C[C@@]1(c2cc(NC(=O)c3ncc(OC(F)F)cc3Cl)ncc2F)CO[C@@](C)(C(F)(F)F)C(N)=N1 [Example 36, 3-Chloro-5-difluoromethoxy-pyridine-2-carboxylic acid [4-((3R,6R)-5-amino-3,6-dimethyl-6-trifluoromethyl-3,6-dihydro-2H-[1,4]oxazin-3-yl)-5-fluoro-pyridin-2-yl]-amide]
	83 nM		Cc1cc(C#N)cnc1C(=O)Nc1cc([C@]2(C)COC(CF)(CF)C(N)=N2)c(F)cn1 [Example 37, 5-Cyano-3-methyl-pyridine-2-carboxylic acid [4-((R)-5-amino-6,6-bis-fluoromethyl-3-methyl-3,6-dihydro-2H-[1,4]oxazin-3-yl)-5-fluoro-pyridin-2-yl]-amide]
	161 nM		Cc1cnc(C(=O)Nc2ccc(F)c([C@]3(C)CO[C@@](C)(C(F)(F)F)C(N)=N3)n2)c(C)n1 [Example 41, 3,5-Dimethyl-pyrazine-2-carboxylic acid [6-((3R,6R)-5-amino-3,6-dimethyl-6-trifluoromethyl-3,6-dihydro-2H-[1,4]oxazin-3-yl)-5-fluoro-pyridin-2-yl]amide]
	72 nM		C[C@@]1(c2nc(NC(=O)c3ncc(OCCCF)nc3N)ccc2F)CO[C@@](C)(C(F)(F)F)C(N)=N1 [Example 42, 3-Amino-5-(3-fluoro-propoxy)-pyrazine-2-carboxylic acid [6-((3R,6R)-5-amino-3,6-dimethyl-6-trifluoromethyl-3,6-dihydro-2H-[1,4]oxazin-3-yl)-5-fluoro-pyridin-2-yl]amide]

The remaining lines, values behind:

SMILES	IC50 (Human BACE-1)	IC50 [1]	IC50 (Human BACE-2)
Cc1cc(C#N)cnc1C(=O)Nc1ccc(F)c([C@]2(C(F)F)COCC(N)=N2)n1 [Example 38, 5-Cyano-3-methyl-pyridine-2-carboxylic acid [6-((R)-5-amino-3-difluoromethyl-3,6-dihydro-2H-[1,4]oxazin-3-yl)-5-fluoro-pyridin-2-yl]-amide]		5 nM	
Cc1cc(C#N)cnc1C(=O)Nc1ccc(F)c([C@@]2(C(F)F)COCC(N)=N2)n1 [Example 39, 5-Cyano-3-methyl-pyridine-2-carboxylic acid [6-((S)-5-amino-3-difluoromethyl-3,6-dihydro-2H-[1,4]oxazin-3-yl)-5-fluoro-pyridin-2-yl]-amide]		290 nM	
N#Cc1cnc(C(=O)Nc2ccc(F)c([C@]3(C(F)F)COCC(N)=N3)n2)c(Cl)c1 [Example 40, 3-Chloro-5-cyano-pyridine-2-carboxylic acid [6-((R)-5-amino-3-difluoromethyl-3,6-dihydro-2H-[1,4]oxazin-3-yl)-5-fluoro-pyridin-2-yl]-amide]		12 nM	
COCCn1ccc2nc(C(=O)Nc3ccc(F)c([C@]4(C)CO[C@@](C)(C(F)(F)F)C(N)=N4)n3)c(N)nc21 [Example 43, 3-Amino-5-(2-methoxy-ethyl)-5H-pyrrolo[2,3-b]pyrazine-2-carboxylic acid [6-((3R,6R)-5-amino-3,6-dimethyl-6-trifluoromethyl-3,6-dihydro-2H-[1,4]oxazin-3-yl)-5-fluoro-pyridin-2-yl]amide]		370 nM	
C[C@@]1(c2nc(NC(=O)c3nc4ccn(CC(F)F)c4nc3N)ccc2F)CO[C@@](C)(C(F)(F)F)C(N)=N1 [Example 45, 3-Amino-5-(2,2-difluoro-ethyl)-5H-pyrrolo[2,3-b]pyrazine-2-carboxylic acid [6-((3R,6R)-5-amino-3,6-dimethyl-6-trifluoromethyl-3,6-dihydro-2H-[1,4]oxazin-3-yl)-5-fluoro-pyridin-2-yl]amide]		3600 nM	
